Results as given in publication PMC5995184, “Potent anti-leukemic activity of a specific cyclin-dependent kinase 9 inhibitor in mouse models of chronic lymphocytic leukemia” (Oncotarget, 2018).
Where two headings read alike, the source gives them in different places.

System: primary CLL cells (CLL PBMC)
Assay: Primary CLL cells apoptosis, viability, MCL-1/BCL-2 (flow cytometry)
Type: cell-based, human
Settings: for IC50: Homo sapiens, CLL cell, read-out: IC50, absolute number of viable CLL PBMC
Description: The MEC-1 cell line was obtained from the DSMZ (Braunschweig, Germany) and was cultured in RPMI (10% fetal bovine serum). A LDC526 stock solution was prepared with DMSO, diluted and added to the cultures to reach the specified concentrations. Samples (percentage of CD19+CD5+ CLL cells >90%) of n=37 CLL patients (Table 1) and n=6 healthy normal donor controls were used for experiments after obtaining informed consent according to institutional guidelines, approved by the Ethics Commission of the University of Essen-Duisburg. Peripheral blood mononuclear cells (PBMC) were isolated using Lymphoprep ([…] Technologies, Cologne, Germany) density gradient centrifugation and were used directly for NSG transplantation or in vitro experiments. Untouched normal donor B cells were isolated with a B cell isolation kit (Miltenyi, Bergisch Gladbach, Germany) according to the manufacturer’s instructions. For in vitro experiments, cells were maintained in RPMI supplemented with 10% fetal bovine serum, penicillin and streptomycin.
Apoptosis and cell death were determined by using Annexin V (BD Biosciences, Heidelberg, Germany) and 4′,6-Diamidin-2-phenylindol (DAPI, Sigma-Aldrich) staining. Erythrocytes of murine peripheral blood samples were lysed with NH4Cl hypotonic solution. Single cell suspensions of murine spleens were prepared as previously described. Murine cells were stained with antibodies directed against murine CD3 (clone 145-2C11), CD5 (53-7.3) and CD19 (1D3), respectively. For the detection of human cells in NSG spleens antibodies against human CD3 (clone SK7), CD4 (SK3), CD5 (L17F12), CD8 (SK1), CD19 (J3-119 or SJ25C1) and CD45 (2D1) were used (purchased from BD Bioscience, Biolegend and Beckman Coulter). Flow cytometric analysis was carried out on a LSRII flow cytometer (BD Biosciences, Heidelberg, Germany). Flow cytometric data were analyzed with BD FACSDiva or FlowJo software (FLOWJO, LLC, Ashland, OR, USA). Intracellular staining for MCL-1 and BCL-2 (anti-MCL-1 [clone D2W9E, Cell Signaling Technology, Leiden, The Netherlands] and matched isotype control [clone DA1E, Cell Signaling Technology]; anti-BCL-2 [clone Bcl-2/100, BD Bioscience] and matched isotype control [clone MOPC-21, BD Bioscience]) within MEC-1 and primary CLL cells was performed with the FoxP3 / Transcription factor staining buffer set (eBioscience/Thermo Fisher Scientific, Dreieich, Germany) according to the manufacturer’s instructions. Before permeabilization and antibody incubation cells were stained with a fixable viability dye (eFluor 450, eBioscience/Thermo Fisher Scientific). Before adding the anti-MCL-1 and anti-BCL-2 antibodies permeabilized cells were blocked with 2% mouse serum and 2% rabbit serum (Sigma-Aldrich) in permeabilization buffer. Intracellullar murine lymphocyte staining for Bcl-2 was carried out with the BD Cytofix/Cytoperm kit according to the manufacturer’s instructions. A Hamster Anti-mouse Bcl-2 (clone 3F119, BD Biosciences) and a corresponding isotype control (clone A19-3) were used. Dead cells and doublets were excluded by and FSC/SSC gating and positive DAPI or eFluor 450 viability dye staining, respectively. To assess the impact of LDC526 on the cell-cycle status of MEC-1 cells we used the BrdU Flow Kit according to the manufacturer’s protocol (BD Bioscience). BrdU was added to the media 30 minutes before commencing the analysis.
Data were analyzed with GraphPad Prism 7 software. Differences were assessed by unpaired or paired Student t tests if not indicated otherwise. Two-sided probabilities of less than 0.05 were considered significant. Nonlinear regression sigmoidal dose-response curve fit was used to determine the IC50 values and to generate graphs.

[1] = 4 hours, increasing concentrations

## COc1cc(F)ccc1-c1ncnc(Nc2cccc(CS(N)(=O)=O)c2)n1 [LDC526, (3-((4-(4-fluoro-2-methoxyphenyl)-1,3,5-triazin-2-yl)amino)phenyl)methane-sulfonamide]
4 hours, 500 and 1000 nM
  apoptosis of primary CLL PBMCs (Annexin V): significantly increased percentages of apoptosis
[1]
  BCL-2 levels in primary CLL cells: not significantly altered
  MCL-1 protein levels in primary CLL cells: significantly decreased MCL-1 protein levels
24 hours incubation
  IC50: 340 nM
48 hours incubation
  IC50: 280 nM
high-risk versus low-risk
  LDC526-induced effect between prognostic CLL subgroups (FISH, CD38, Binet, therapy): no statistically significant differences
